Test results published in US20240199605A1, “SMALL MOLECULAR INHIBITORS OF NF-kB INDUCING KINASE” (Janssen Pharmaceutica NV, priority 2019, published 2024).

Experiments:
[1] = molecular target: recombinant human NF-kappaB-inducing kinase (NIK/MAP3K14) (Homo sapiens (Human), UniProt Q99558); test: Inhibition of auto-phosphorylation of recombinant human NIK/MAP3K14 (AlphaScreen); type: biochemical; settings: NIK auto-phosphorylation, 5 μM ATP, 1 nM NIK, 2 h at 25° C.; average of values
Summary of the method: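 GST-tagged NIK (1 nM) auto-phosphorylated with 5 μM ATP for 2 h at 25° C. in 50 mM Tris pH 7.5, 5 mM MgCl2, 1 mM EGTA, 1 mM DTT, 0.1 mM Na3VO4, 0.01% Tween 20 (0.7% DMSO). Detected by AlphaScreen via anti-phospho-IKK Ser176/180 antibody; IC50 from sigmoidal fit of % inhibition versus log concentration.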

[2] = system: p-IKKα levels in L363 (NIK translocated multiple myeloma) cells; test: Effect of compounds on p-IKKα levels in L363 cells (AlphaLISA SureFire Ultra); type: cell-based, human; settings: Homo sapiens, L-363, 6 h, BAFF stimulated, MG132, 6 h, average of values, read-out: Assay 2 IC50
Summary of the method: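 Inhibition of p-IKKα (Ser176/180) read by AlphaLISA after 6 h, 37 °C compound exposure (11-point 1:3 series, 0.3% DMSO) of L363 cells pre-incubated overnight ± 250 ng/ml BAFF and plated ± BAFF ± 10 μM MG132. Normalised to BAFF/MG132/DMSO and unstimulated controls; IC50 by sigmoidal fitting, duplicates.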

Sequence of recombinant human NF-kappaB-inducing kinase (NIK/MAP3K14) (Q99558 whole entry): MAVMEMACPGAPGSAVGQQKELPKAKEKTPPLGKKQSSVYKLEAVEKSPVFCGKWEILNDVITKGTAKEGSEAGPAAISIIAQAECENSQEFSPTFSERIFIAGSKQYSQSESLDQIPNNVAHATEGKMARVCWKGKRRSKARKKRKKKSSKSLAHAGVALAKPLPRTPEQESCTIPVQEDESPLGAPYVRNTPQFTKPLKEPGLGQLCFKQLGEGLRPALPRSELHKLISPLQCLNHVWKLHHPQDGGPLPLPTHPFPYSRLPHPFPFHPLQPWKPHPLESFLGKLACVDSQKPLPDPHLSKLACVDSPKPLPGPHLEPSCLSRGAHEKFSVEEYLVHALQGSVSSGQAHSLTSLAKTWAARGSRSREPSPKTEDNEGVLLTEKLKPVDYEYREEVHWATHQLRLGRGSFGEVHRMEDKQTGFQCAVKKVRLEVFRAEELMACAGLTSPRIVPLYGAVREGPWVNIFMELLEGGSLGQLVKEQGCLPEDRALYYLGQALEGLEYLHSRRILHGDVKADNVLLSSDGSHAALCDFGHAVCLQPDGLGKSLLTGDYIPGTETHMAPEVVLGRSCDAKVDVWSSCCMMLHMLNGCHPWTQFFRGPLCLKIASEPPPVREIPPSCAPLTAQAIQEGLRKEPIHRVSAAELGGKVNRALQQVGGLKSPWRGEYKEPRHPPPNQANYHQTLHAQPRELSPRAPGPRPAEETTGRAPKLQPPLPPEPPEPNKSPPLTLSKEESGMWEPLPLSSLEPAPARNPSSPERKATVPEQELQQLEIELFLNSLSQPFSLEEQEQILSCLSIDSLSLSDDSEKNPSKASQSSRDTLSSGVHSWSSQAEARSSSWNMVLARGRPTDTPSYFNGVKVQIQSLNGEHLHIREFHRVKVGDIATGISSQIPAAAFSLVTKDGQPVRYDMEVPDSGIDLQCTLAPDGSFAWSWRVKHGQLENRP

| SMILES | IC50 [1] | IC50 [2] |
| --- | --- | --- |
| CN1CC[C@@](O)(C#Cc2cccc(-c3cc(Cl)c4ncnc(N)c4c3)c2)C1=O [Example 117, (R)-3-((3-(4-Amino-8-chloroquinazolin-6-yl)phenyl)ethynyl)-3-hydroxy-1-methylpyrrolidin-2-one] | ≤ 0.0005 µM | 0.033 µM |
| CN1CC[C@@](O)(C#Cc2cccc(-c3ncc4c(-c5cnn(CC(C)(C)O)c5)cnc(N)c4n3)c2)C1=O [Example 123, (R)-3-[2-[3-[8-Amino-5-[1-(2-hydroxy-2-methyl-propyl)pyrazol-4-yl]pyrido[3,4-d]pyrimidin-2-yl]phenyl]ethynyl]-3-hydroxy-1-methyl-pyrrolidin-2-one] | ≤ 0.0005 µM | 0.004 µM |
| CN1CC[C@@](O)(C#Cc2cccc(-c3ccc4nccc(N5CCC5)c4c3)c2)C1=O [Example 235, (R)-3-((3-(4-(Azetidin-1-yl)quinolin-6-yl)phenyl)ethynyl)-3-hydroxy-1-methylpyrrolidin-2-one] | 2.95 µM | > 5 µM |
| CN1CC[C@@](O)(C#Cc2cccc(-c3cc(C4CCC4)c4ncnc(N)c4n3)c2)C1=O [Example 309, (R)-3-((3-(4-Amino-8-cyclobutylpyrido[3,2-d]pyrimidin-6-yl)phenyl)ethynyl)-3-hydroxy-1-methylpyrrolidin-2-one] | ≤ 0.0005 µM | 0.0097 µM |
| Cc1ccc(C#C[C@]2(O)CCn3ccnc32)cc1-c1ccc2ccnc(N)c2c1 [Example 81, (R)-7-[2-[3-(1-Amino-7-isoquinolyl)-4-methyl-phenyl]ethynyl]-5,6-dihydropyrrolo[1,2-a]imidazol-7-ol] | 0.011 µM | 1.98 µM |
| Nc1nccc2cnc(-c3cccc(C#CC4(O)CCN(CC(F)(F)F)C4=O)c3)nc12 (stereo in doubt) [Example 72, (R)-3-[2-[3-(8-Aminopyrido[3,4-d]pyrimidin-2-yl)phenyl]ethynyl]-3-hydroxy-1-(2,2,2-trifluoroethyl)pyrrolidin-2-one] | 0.008 µM | 0.91 µM |
| C[C@@](O)(C#Cc1cccc(-c2ncc3ncnc(N)c3n2)c1)c1nccs1 [Example 137, (R)-4-(3-(8-Aminopyrimido[5,4-d]pyrimidin-2-yl)phenyl)-2-(thiazol-2-yl)but-3-yn-2-ol] | ≤ 0.0005 µM | 0.0093 µM |
| Cc1nc(N)c2nc(-c3cccc(C#C[C@](C)(O)c4nc(C(F)(F)F)cs4)c3)ccc2n1 [Example 193, (S)-4-(3-(4-Amino-2-methylpyrido[3,2-d]pyrimidin-6-yl)phenyl)-2-(4-(trifluoromethyl)thiazol-2-yl)but-3-yn-2-ol] | 2.37 µM | > 5 µM |
| CN1CC[C@@](O)(C#Cc2cccc(-c3ccc4ncnc(N5CCCCC5)c4n3)c2)C1=O [Example 225, (R)-3-Hydroxy-1-methyl-3-((3-(4-(piperidin-1-yl)pyrido[3,2-d]pyrimidin-6-yl)phenyl)ethynyl)pyrrolidin-2-one] | 0.0061 µM | 0.6 µM |
| CN1CC[C@@](O)(C#Cc2cccc(-c3nc4ncnc(N)c4s3)c2)C1=O [Example 214, (R)-3-((3-(7-Aminothiazolo[4,5-d]pyrimidin-2-yl)phenyl)ethynyl)-3-hydroxy-1-methylpyrrolidin-2-one] | 0.32 µM | > 5 µM |

More lines, now with the values ahead:

| IC50 [1] | IC50 [2] | SMILES |
| --- | --- | --- |
| 0.0007 µM | 0.015 µM | CN1CC[C@@](O)(C#Cc2cccc(-c3nc(N(C)C)c4ccnc(N)c4n3)c2)C1=O [Example 58, (R)-3-((3-(8-Amino-4-(dimethylamino)pyrido[3,4-d]pyrimidin-2-yl)phenyl)ethynyl)-3-hydroxy-1-methylpyrrolidin-2-one] |
| 0.004 µM | 0.18 µM | CN1CC[C@@](O)(C#Cc2cccc(-c3ccc4c(CN5CCCC5)cnc(N)c4n3)c2)C1=O [Example 171, (R)-3-[2-[3-[8-Amino-5-(pyrrolidin-1-ylmethyl)-1,7-naphthyridin-2-yl]phenyl]ethynyl]-3-hydroxy-1-methyl-pyrrolidin-2-one] |
| ≤ 0.0005 µM | 0.0069 µM | CNc1cc(-c2cccc(C#C[C@]3(O)CCN(C)C3=O)c2)nc2c(N)ncnc12 [Example 296, (R)-3-[2-[3-[4-Amino-8-(methylamino)pyrido[3,2-d]pyrimidin-6-yl]phenyl]ethynyl]-3-hydroxy-1-methyl-pyrrolidin-2-one] |
| 0.0007 µM | 0.015 µM | CN1CC[C@@](O)(C#Cc2cccc(-c3cc(C4CCOCC4)c4ncnc(N)c4n3)c2)C1=O [Example 255, (R)-3-((3-(4-Amino-8-(tetrahydro-2H-pyran-4-yl)pyrido[3,2-d]pyrimidin-6-yl)phenyl)ethynyl)-3-hydroxy-1-methylpyrrolidin-2-one] |
